Assay results taken from ChEMBL document CHEMBL4308841, “Synthesis, in vitro antiproliferative activity, and kinase inhibitory effects of pyrazole-containing diarylureas and diarylamides” (Eur J Med Chem, 2018).
pIC50: −log10 of the molar value.

Columns and labels:
[1] = system: HCT-116; assay: Growth inhibition of human HCT116 cells assessed as cell growth at 0.1 uM incubated for 48 hrs by sulforhodamine B assay relative to control; type: functional; details: HCT-116, 48 h, read-out: Activity
[2] = system: ACHN; assay: Growth inhibition of human ACHN cells assessed as cell growth at 100 uM incubated for 48 hrs by sulforhodamine B assay relative to control; type: functional; details: read-out: Activity
[3] = system: RXF 393; assay: Growth inhibition of human RXF393 cells assessed as cell growth at 0.1 uM incubated for 48 hrs by sulforhodamine B assay relative to control; type: functional; details: RXF 393, 48 h, read-out: Activity
[4] = system: BT-549; assay: Growth inhibition of human BT549 cells assessed as cell growth at 100 uM incubated for 48 hrs by sulforhodamine B assay relative to control; type: functional; details: BT-549, 48 h, read-out: Activity
[5] = system: CCRF-CEM; assay: Growth inhibition of human CCRF-CEM cells assessed as cell growth at 100 uM incubated for 48 hrs by sulforhodamine B assay relative to control; type: functional; details: read-out: Activity
[6] = system: UACC-62; assay: Growth inhibition of human UACC62 cells assessed as cell growth at 0.01 uM incubated for 48 hrs by sulforhodamine B assay relative to control; type: functional; details: UACC-62, 48 h, read-out: Activity
[7] = system: T47D; assay: Growth inhibition of human T47D cells assessed as cell growth at 0.1 uM incubated for 48 hrs by sulforhodamine B assay relative to control; type: functional; details: read-out: Activity
[8] = system: NCI/ADR-RES; assay: Growth inhibition of human NCI/ADR-RES cells assessed as cell growth at 0.1 uM incubated for 48 hrs by sulforhodamine B assay relative to control; type: functional; details: read-out: Activity
[9] = system: Hs-578T; assay: Growth inhibition of human Hs578T cells assessed as cell growth at 1 uM incubated for 48 hrs by sulforhodamine B assay relative to control; type: functional; details: read-out: Activity
[10] = system: RPMI-8226; assay: Growth inhibition of human RPMI8226 cells assessed as cell growth at 0.1 uM incubated for 48 hrs by sulforhodamine B assay relative to control; type: functional; details: RPMI-8226, 48 h, read-out: Activity
[11] = system: SN12C; assay: Growth inhibition of human SN12C cells assessed as cell growth at 0.01 uM incubated for 48 hrs by sulforhodamine B assay relative to control; type: functional; details: read-out: Activity
[12] = system: SF-268; assay: Growth inhibition of human SF268 cells assessed as cell growth at 100 uM incubated for 48 hrs by sulforhodamine B assay relative to control; type: functional; details: SF-268, 48 h, read-out: Activity
[13] = system: NCI-H522; assay: Growth inhibition of human NCI-H522 cells assessed as cell growth at 0.1 uM incubated for 48 hrs by sulforhodamine B assay relative to control; type: functional; details: NCI-H522, 48 h, read-out: Activity
[14] = system: A549; assay: Growth inhibition of human A549/ATCC cells assessed as cell growth at 100 uM incubated for 48 hrs by sulforhodamine B assay relative to control; type: functional; details: A549, 48 h, read-out: Activity
[15] = system: SNB-19; assay: Growth inhibition of human SNB19 cells assessed as cell growth at 0.1 uM incubated for 48 hrs by sulforhodamine B assay relative to control; type: functional; details: SNB-19, 48 h, read-out: Activity
[16] = system: SK-MEL-2; assay: Growth inhibition of human SK-MEL-2 cells assessed as cell growth at 0.1 uM incubated for 48 hrs by sulforhodamine B assay relative to control; type: functional; details: SK-MEL-2, 48 h, read-out: Activity
[17] = system: UACC-257; assay: Growth inhibition of human UACC257 cells incubated for 48 hrs by sulforhodamine B assay; type: functional, cell-based; details: UACC-257, 48 h
[18] = system: HL-60(TB); assay: Growth inhibition of human HL-60(TB) cells incubated for 48 hrs by sulforhodamine B assay; type: functional, cell-based; details: HL-60, 48 h
[19] = system: SNB-19; assay: Growth inhibition of human SNB19 cells incubated for 48 hrs by sulforhodamine B assay; type: functional, cell-based; details: SNB-19, 48 h
[20] = system: SF-539; assay: Growth inhibition of human SF539 cells assessed as cell growth at 0.1 uM incubated for 48 hrs by sulforhodamine B assay relative to control; type: functional; details: SF-539, 48 h, read-out: Activity
[21] = system: RXF 393; assay: Growth inhibition of human RXF393 cells incubated for 48 hrs by sulforhodamine B assay; type: functional, cell-based; details: RXF 393, 48 h
[22] = system: KM12; assay: Growth inhibition of human KM12 cells assessed as cell growth at 0.1 uM incubated for 48 hrs by sulforhodamine B assay relative to control; type: functional; details: KM12, 48 h, read-out: Activity
[23] = system: SNB-75; assay: Growth inhibition of human SNB75 cells assessed as cell growth at 1 uM incubated for 48 hrs by sulforhodamine B assay relative to control; type: functional; details: SNB-75, 48 h, read-out: Activity
[24] = system: U-251; assay: Growth inhibition of human U251 cells assessed as cell growth at 100 uM incubated for 48 hrs by sulforhodamine B assay relative to control; type: functional; details: U-251, 48 h, read-out: Activity
[25] = system: SK-OV-3; assay: Growth inhibition of human SKOV3 cells assessed as cell growth at 0.1 uM incubated for 48 hrs by sulforhodamine B assay relative to control; type: functional; details: SK-OV-3, 48 h, read-out: Activity
[26] = system: NCI-H322M; assay: Growth inhibition of human NCI-H322M cells assessed as cell growth at 0.1 uM incubated for 48 hrs by sulforhodamine B assay relative to control; type: functional; details: read-out: Activity
[27] = system: UO-31; assay: Growth inhibition of human UO31 cells incubated for 48 hrs by sulforhodamine B assay; type: functional, cell-based; details: UO-31, 48 h
[28] = system: NCI-H226; assay: Growth inhibition of human NCI-H226 cells assessed as cell growth at 100 uM incubated for 48 hrs by sulforhodamine B assay relative to control; type: functional; details: NCI-H226, 48 h, read-out: Activity
[29] = system: HCC 2998; assay: Growth inhibition of human HCC2998 cells incubated for 48 hrs by sulforhodamine B assay; type: functional, cell-based; details: HCC 2998, 48 h
[30] = read-out: LC50 (the source's name)
[31] = read-out: pLC50 (the source's name) (converted)

Structure (SMILES): COc1cc(Cl)cc(-c2nn(-c3cccc(NC(=O)c4ccc(N5CCOCC5)c(C(F)(F)F)c4)c3)cc2-c2ccncc2)c1
- growth at 0.1 µM [1]: 97%
- growth at 100 µM [2]: 28%
- growth at 0.1 µM [3]: 100%
- growth at 100 µM [4]: 49%
- growth at 100 µM [5]: 18%
- growth at 0.01 µM [6]: 95%
- growth at 0.1 µM [7]: 95%
- growth at 0.1 µM [8]: 99%
- growth at 1 µM [9]: 81%
- growth at 0.1 µM [10]: 107%
- growth at 0.01 µM [11]: 97%
- growth at 100 µM [12]: 53%
- growth at 0.1 µM [13]: 81%
- growth at 100 µM [14]: 25%
- growth at 0.1 µM [15]: 94%
- growth at 0.1 µM [16]: 83%
- GI50 ([17]; read-out: GI50): 2.17 µM
- CC50 [17, 30]: > 100 µM
- TGI ([17]; read-out: TGI): 69.1 µM
- GI50 ([17]; read-out: pGI50 (converted)): 21.9 µM
- CC50 [17, 31]: > 100 µM
- TGI ([17]; read-out: pTGI (converted)): 69.2 µM
- GI50 ([18]; read-out: GI50): 4.19 µM
- LC50 ([18]; read-out: LC50): > 100 µM
- TGI ([18]; read-out: TGI): 33.2 µM
- GI50 ([18]; read-out: pGI50 (converted)): 4.17 µM
- LC50 ([18]; read-out: pLC50 (converted)): > 100 µM
- TGI ([18]; read-out: pTGI (converted)): 33.1 µM
- GI50 ([19]; read-out: GI50): > 100 µM
- CC50 [19, 30]: > 100 µM
- TGI ([19]; read-out: TGI): > 100 µM
- GI50 ([19]; read-out: pGI50 (converted)): > 100 µM
- CC50 [19, 31]: > 100 µM
- TGI ([19]; read-out: pTGI (converted)): > 100 µM
- growth at 0.1 µM [20]: 85%
- LC50 [21]: > 100 µM
- GI50 ([21]; read-out: GI50): 830 nM
- TGI ([21]; read-out: TGI): 23.9 µM
- GI50 ([21]; read-out: pGI50 (converted)): 813 nM
- TGI ([21]; read-out: pTGI (converted)): 24 µM
- growth at 0.1 µM [22]: 95%
- growth at 1 µM [23]: 51%
- growth at 100 µM [24]: 3%
- growth at 0.1 µM [25]: 102%
- growth at 0.1 µM [26]: 94%
- pIC50 [27]: 5.35
- GI50 ([27]; read-out: GI50): 4.5 µM
- CC50 [27, 30]: > 100 µM
- TGI ([27]; read-out: TGI): > 100 µM
- GI50 ([27]; read-out: pGI50 (converted)): 4.47 µM
- CC50 [27, 31]: > 100 µM
- TGI ([27]; read-out: pTGI (converted)): > 100 µM
- growth at 100 µM [28]: 50%
- GI50 ([29]; read-out: GI50): 5.06 µM
- CC50 [29, 30]: > 100 µM
- TGI ([29]; read-out: TGI): 74.7 µM
- GI50 ([29]; read-out: pGI50 (converted)): 6.03 µM
- CC50 [29, 31]: > 100 µM
- TGI ([29]; read-out: pTGI (converted)): 74.1 µM
